Target: T1, WT BTK protein (Homo sapiens, UniProt Q06187)
T1 construct: measured for intracellular BTK protein levels by Western blotting; endogenous in cells; host or cells: TMD-8 or RAMOS cells
Test: BTK protein degradation assay (Western blotting), WT BTK
Format: cell-based
Details: concentration range accounting for 50% degradation of WT BTK protein, TMD-8 or RAMOS cells, 24 hours
Procedure, shortened: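 BTK levels were read by Western blotting (GAPDH and β-actin normalisers) in RIPA lysates of TMD-8 cells exposed to compounds for 24 h at 1×10^6 cells/mL. Results scored in ranges of the concentration producing 50% loss of WT BTK.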

T1 sequence (Q06187 whole entry): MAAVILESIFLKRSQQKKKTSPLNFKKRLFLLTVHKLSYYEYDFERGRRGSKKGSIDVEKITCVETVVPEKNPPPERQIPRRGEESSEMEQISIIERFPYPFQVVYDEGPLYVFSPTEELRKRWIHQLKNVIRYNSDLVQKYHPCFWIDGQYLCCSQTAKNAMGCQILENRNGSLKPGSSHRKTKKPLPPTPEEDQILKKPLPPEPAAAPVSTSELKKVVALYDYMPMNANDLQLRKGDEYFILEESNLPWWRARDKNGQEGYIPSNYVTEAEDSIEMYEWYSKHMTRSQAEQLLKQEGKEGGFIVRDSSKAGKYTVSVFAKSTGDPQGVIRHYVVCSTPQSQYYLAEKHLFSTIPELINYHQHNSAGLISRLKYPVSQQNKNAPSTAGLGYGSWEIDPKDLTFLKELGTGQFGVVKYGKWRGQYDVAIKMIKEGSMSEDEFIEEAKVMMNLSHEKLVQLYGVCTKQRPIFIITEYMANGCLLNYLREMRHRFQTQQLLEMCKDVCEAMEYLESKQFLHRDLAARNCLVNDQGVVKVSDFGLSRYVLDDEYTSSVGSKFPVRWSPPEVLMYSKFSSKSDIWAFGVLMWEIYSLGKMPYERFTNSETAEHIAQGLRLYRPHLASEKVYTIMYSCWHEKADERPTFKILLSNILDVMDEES

Structure (SMILES) | DC50
Cc1cccc(C)c1Nc1nn(C)c2nc(Nc3ccc4c(c3)CN(CC3CCN(c5ccc(C(=O)NC6CCC(=O)NC6=O)nc5)CC3)CC4)ncc12 (stereo not shown) [Compound 137, 5-(4-((7-((3-((2,6-Dimethylphenyl)amino)-1-methyl-1H-pyrazolo[3,4-d]pyrimidin-6-yl)amino)-3,4-dihydroisoquinolin-2 (1H)-yl)methyl)piperidin-1-yl)-N-(2,6-dioxopiperidin-3-yl)picolinamide] | 0.1 to 10 nM
Cc1cccc(C)c1Nc1nn(C)c2nc(Nc3ccc4c(c3)CN(CCC3CCN(c5ccc6c(c5)C(=O)N(C5CCC(=O)NC5=O)C6=O)CC3)CC4)ncc12 (stereo not shown) [Compound 146, 5-(4-(2-(7-((3-((2,6-Dimethylphenyl)amino)-1-methyl-1H-pyrazolo[3,4-d]pyrimidin-6-yl)amino)-3,4-dihydroisoquinolin-2 (1H)-yl)ethyl)piperidin-1-yl)-2-(2,6-dioxopiperidin-3-yl)isoindoline-1,3-dione] | 0.1 to 10 nM
COc1ccc(C(=O)N2CCC(CC(=O)N3CCc4cc(Nc5ncc6c(Nc7c(C)cccc7C)nn(C)c6n5)ccc4C3)CC2)cc1N1CCC(=O)NC1=O [Compound 111, 1-(5-(4-(2-(6-((3-((2,6-Dimethylphenyl)amino)-1-methyl-1H-pyrazolo[3,4-d]pyrimidin-6-yl)amino)-3,4-dihydroisoquinolin-2 (1H)-yl)-2-oxoethyl)piperidine-1-carbonyl)-2-methoxyphenyl)dihydropyrimidine-2,4 (1H,3H)-dione] | 10 to 1000 nM
Cc1cccc(C)c1Nc1nn(C)c2nc(Nc3ccc4c(c3)CCN(CC3CCN(c5ccc6c(c5)C(=O)N(C5CCC(=O)NC5=O)C6=O)CC3)C4)ncc12 (stereo not shown) [Compound 109, 5-(4-((6-((3-((2,6-Dimethylphenyl)amino)-1-methyl-1H-pyrazolo[3,4-d]pyrimidin-6-yl)amino)-3,4-dihydroisoquinolin-2 (1H)-yl)methyl)piperidin-1-yl)-2-(2,6-dioxopiperidin-3-yl)isoindoline-1,3-dione] | 10 to 1000 nM
Cc1cccc(C)c1Nc1nn(C)c2nc(Nc3ccc4c(c3)CN(CC3CCN(C5CN(c6ccc7c(c6)C(=O)N(C6CCC(=O)NC6=O)C7=O)C5)CC3)CC4)ncc12 (stereo not shown) [Compound 147, 5-(3-(4-((7-((3-((2,6-Dimethylphenyl)amino)-1-methyl-1H-pyrazolo[3,4-d]pyrimidin-6-yl)amino)-3,4-dihydroisoquinolin-2 (1H)-yl)methyl)piperidin-1-yl)azetidin-1-yl)-2-(2,6-dioxopiperidin-3-yl)isoindoline-1,3-dione] | 0.1 to 10 nM
Cc1cccc(C)c1Nc1nn(C)c2nc(Nc3ccc4c(c3)CCN(C[C@H]3CCN(c5ccc6c(c5)C(=O)N(C5CCC(=O)NC5=O)C6=O)C3)C4)ncc12 (stereo partly drawn) [Compound 173, 5-((R)-3-((6-((3-((2,6-Dimethylphenyl)amino)-1-methyl-1H-pyrazolo[3,4-d]pyrimidin-6-yl)amino)-3,4-dihydroisoquinolin-2 (1H)-yl)methyl)pyrrolidin-1-yl)-2-(2,6-dioxopiperidin-3-yl)isoindoline-1,3-dione] | 0.1 to 10 nM
Cc1cccc(C)c1Nc1nn(C)c2nc(Nc3ccc4c(c3)CN(CC3CCN(CC5CN(c6ccc7c(c6)C(=O)N(C6CCC(=O)NC6=O)C7=O)C5)CC3)CC4)ncc12 (stereo not shown) [Compound 50, 5-(3-((4-((7-((3-((2,6-Dimethylphenyl)amino)-1-methyl-1H-pyrazolo[3,4-d]pyrimidin-6-yl)amino)-3,4-dihydroisoquinolin-2 (1H)-yl)methyl)piperidin-1-yl)methyl)azetidin-1-yl)-2-(2,6-dioxopiperidin-3-yl)isoindoline-1,3-dione] | 10 to 1000 nM
COc1ccc(Nc2nn(C)c3nc(Nc4ccc5c(c4)CN(CC4CCN(c6ccc7c(c6)C(=O)N(C6CCC(=O)NC6=O)C7=O)CC4)CC5)ncc23)c(C)c1 (stereo not shown) [Compound 118, 2-(2,6-Dioxopiperidin-3-yl)-5-(4-((7-((3-((4-methoxy-2-methylphenyl)amino)-1-methyl-1H-pyrazolo[3,4-d]pyrimidin-6-yl)amino)-3,4-dihydroisoquinolin-2 (1H)-yl)methyl)piperidin-1-yl)isoindoline-1,3-dione] | 1000 to 10000 nM
Cc1cccc(C)c1Nc1nn(C)c2nc(Nc3ccc(N4CCN(C[C@@H]5CCN(c6ccc7c(c6)C(=O)N(C6CCC(=O)NC6=O)C7=O)C5)CC4)nc3)ncc12 (stereo partly drawn) [Compound 155, 5-((S)-3-((4-(5-((3-((2,6-dimethylphenyl)amino)-1-methyl-1H-pyrazolo[3,4-d]pyrimidin-6-yl)amino)pyridin-2-yl)piperazin-1-yl)methyl)pyrrolidin-1-yl)-2-(2,6-dioxopiperidin-3-yl)isoindoline-1,3-dione] | 0.1 to 10 nM
Cc1cccc(C)c1Nc1nn(C)c2nc(Nc3ccc(C4CCN(CC5CCN(c6ccc7c(n6)CN(C6CCC(=O)NC6=O)C7=O)CC5)CC4)cc3)ncc12 (stereo not shown) [Compound 170, 3-(2-(4-((4-(4-((3-((2,6-Dimethylphenyl)amino)-1-methyl-1H-pyrazolo[3,4-d]pyrimidin-6-yl)amino)phenyl)piperidin-1-yl)methyl)piperidin-1-yl)-5-oxo-5,7-dihydro-6H-pyrrolo[3,4-b]pyridin-6-yl)piperidin-2,6-one] | 0.1 to 10 nM
Cc1cccc(C)c1Nc1nn(C)c2nc(Nc3ccc4c(c3)CN(CC3CCN(c5ccc6c(c5)C(=O)N(C5CCC(=O)N(COC(=O)C(C)(C)C)C5=O)C6=O)CC3)CC4)ncc12 (stereo not shown) [Compound 107, (3-(5-(4-((7-((3-((2,6-dimethylphenyl)amino)-1-methyl-1H-pyrazolo[3,4-d]pyrimidin-6-yl)amino)-3,4-dihydroisoquinolin-2 (1H)-yl)methyl)piperidin-1-yl)-1,3-dioxoisoindolin-2-yl)-2,6-dioxopiperidin-1-yl)methyl pivalate] | 0.1 to 10 nM
Cc1cccc(C)c1Nc1nn(C)c2nc(Nc3ccc4c(c3)CN(C3CN(C[C@H]5CCN(c6ccc7c(c6)C(=O)N(C6CCC(=O)NC6=O)C7=O)C5)C3)CC4)ncc12 (stereo partly drawn) [Compound 150, 5-((R)-3-((3-(7-((3-((2,6-Dimethylphenyl)amino)-1-methyl-1H-pyrazolo[3,4-d]pyrimidin-6-yl)amino)-3,4-dihydroisoquinolin-2 (1H)-yl)azetidin-1-yl)methyl)pyrrolidin-1-yl)-2-(2,6-dioxopiperidin-3-yl)isoindoline-1,3-dione] | 0.1 to 10 nM
Cc1cccc(C)c1Nc1nn(C)c2nc(Nc3ccc4c(c3)CN(C(=O)CNCc3ccc5c(c3)CN(C3CCC(=O)NC3=O)C5=O)CC4)ncc12 (stereo not shown) [Compound 98, 3-(5-(((2-(7-((3-((2,6-Dimethylphenyl)amino)-1-methyl-1H-pyrazolo[3,4-d]pyrimidin-6-yl)amino)-3,4-dihydroisoquinolin-2 (1H)-yl)-2-oxoethyl)amino)methyl)-1-oxoisoindolin-2-yl)piperidin-2,6-one] | 0.1 to 10 nM

Next, values leading:

DC50 | Structure (SMILES)
0.1 to 10 nM | Cc1cccc(C)c1Nc1nn(C)c2nc(Nc3ccc4c(c3)CN(CC3CCN(C(=O)CNc5cc6c(cc5F)C(=O)N(C5CCC(=O)NC5=O)C6=O)CC3)CC4)ncc12 (stereo not shown) [Compound 211, 5-((2-(4-((7-((3-((2,6-Dimethylphenyl)amino)-1-methyl-1H-pyrazolo[3,4-d]pyrimidin-6-yl)amino)-3,4-dihydroisoquinolin-2 (1H)-yl)methyl)piperidin-1-yl)-2-oxoethyl)amino)-2-(2,6-dioxopiperidin-3-yl)-6-fluoroisoindoline-1,3-dione]
0.1 to 10 nM | Cc1cccc(C)c1Nc1nn(C)c2nc(Nc3ccc4c(c3)CN(C(=S)C3CCN(c5cc6c(cc5F)C(=O)N(C5CCC(=O)NC5=O)C6=O)CC3)CC4)ncc12 (stereo not shown) [Compound 233, 5-(4-(7-((3-((2,6-dimethylphenyl)amino)-1-methyl-1H-pyrazolo[3,4-d]pyrimidin-6-yl)amino)-1,2,3,4-tetrahydroisoquinoline-2-carbonothioyl)piperidin-1-yl)-2-(2,6-dioxopiperidin-3-yl)-6-fluoroisoindoline-1,3-dione]
0.1 to 10 nM | Cc1cccc(C)c1Nc1nn(C)c2nc(Nc3ccc(C4CCN(C(=O)CC5CCN(c6ccc7c(c6)C(=O)N(C6CCC(=O)NC6=O)C7=O)CC5)CC4)c(F)c3)ncc12 (stereo not shown) [Compound 227, 5-(4-(2-(4-(4-((3-((2,6-dimethylphenyl)amino)-1-methyl-1H-pyrazolo[3,4-d]pyrimidin-6-yl)amino)-2-fluorophenyl)piperidin-1-yl)-2-oxoethyl)piperidin-1-yl)-2-(2,6-dioxopiperidin-3-yl)isoindoline-1,3-dione]
0.1 to 10 nM | Cc1cccc(C)c1Nc1nn(C)c2nc(Nc3ccc4c(c3)CN(CC3(NC(=O)C5CCN(c6ccc7c(c6)C(=O)N(C6CCC(=O)NC6=O)C7=O)CC5)CC3)CC4)ncc12 (stereo not shown) [Compound 204, N-(1-((7-((3-((2,6-dimethylphenyl)amino)-1-methyl-1H-pyrazolo[3,4-d]pyrimidin-6-yl)amino)-3,4-dihydroisoquinolin-2 (1H)-yl)methyl)cyclopropyl)-1-(2-(2,6-dioxopiperidin-3-yl)-1,3-dioxoisoindolin-5-yl)piperidine-4-carboxamide]
0.1 to 10 nM | Cc1cccc(C)c1Nc1nn(C)c2nc(Nc3ccc4c(c3)CN(CC3CCN(c5ccc6c(c5)CN(C5CCC(=O)NC5=O)C6=O)CC3)CC4)ncc12 (stereo not shown) [Compound 237, 3-(5-(4-((7-((3-((2,6-Dimethylphenyl)amino)-1-methyl-1H-pyrazolo[3,4-d]pyrimidin-6-yl)amino)-3,4-dihydroisoquinolin-2 (1H)-yl)methyl)piperidin-1-yl)-1-oxoisoindolin-2-yl)piperidin-2,6-one]
0.1 to 10 nM | Cc1cccc(C)c1Nc1nn(C)c2nc(Nc3ccc4c(c3)CN(C(=O)C3(F)CCN(C(=O)C5CCN(c6ccc7c(c6)C(=O)N(C6CCC(=O)NC6=O)C7=O)CC5)CC3)CC4)ncc12 (stereo not shown) [Compound 246, 5-(4-(4-(7-((3-((2,6-dimethylphenyl)amino)-1-methyl-1H-pyrazolo[3,4-d]pyrimidin-6-yl)amino)-1,2,3,4-tetrahydroisoquinoline-2-carbonyl)-4-fluoropiperidine-1-carbonyl)piperidin-1-yl)-2-(2,6-dioxopiperidin-3-yl)isoindoline-1,3-dione]

From patent US12161722B2, “Bifunctional heterocyclic compound having BTK degradation function via ubiquitin proteasome pathway, and use thereof” (KOREA RESEARCH INSTITUTE OF CHEMICAL TECHNOLOGY, priority 2021, dated 2024)
